Results published in patent publication US6916923B2 (Hoffmann-La Roche Inc., priority 1999, dated 2005).

Columns and labels:
[1] = biological target: T1, Recombinant active human Cyclin E/CDK2 complexes (Homo sapiens, UniProt P24941); assay: CDK2 FlashPlate Assay (inhibition of Rb phosphorylation); type: biochemical; settings: Cyclin E/CDK2, Rb substrate, 33P-ATP, 25 minutes at room temperature; read-out: Inhibition of Cdk2 - IC50 Range
T1 construct: made in house; host or cells: insect cells
Protocol: To determine inhibition of CDK2 activity, purified recombinant retinoblastoma (Rb) protein was coated on 96 well FlashPlates (New England Nuclear, Boston, Mass.). Rb is a natural substrate for phosphorylation by CDK2 (Herwig and Strauss Eurr. J. Biochem., Vol. 246 (1997) pp. 581-601 and references therein). Recombinant active human Cyclin E/CDK2 complexes were partially purified from extracts of insect cells. The active Cyclin E/CDK2 was added to the Rb-coated FlashPlates along with ^33P-ATP and dilutions of test compounds. Plates were incubated for 25 minutes at room temperature with shaking, then washed and counted in the Topcount scintillation counter (Packard Instrument Co., Downers Grove, Ill.). Dilutions of test compounds were tested in duplicate in each assay. The percent inhibition of Rb phosphorylation, which is a measure of the inhibition of CDK2 activity, was determined according to the following formula: [formula] where “test compound” refers to the average counts per minute of the test duplicates, “nonspecific” refers to the average counts per minute when no Cyclin E/CDK2 was added, and “total” refers to the average counts per minute when no compound was added.

[2] = test system: colon adenocarcinoma line SW480; assay: SW480 cell-based antiproliferative (MTT) assay; settings: Homo sapiens, SW480, 144 h, 1000 cells per well, 6 days post addition of test compound, read-out: Antiproliferative Activity SW480 (colon) Assay - IC50 Range
Protocol: (§1) The estrogen receptor negative epithelial breast carcinoma line (MDA-MB-435) was purchased from American Type Cell Culture Collection (ATCC; Rockville, Md.) and was grown in the medium recommended by ATCC. For analysis of the effect of the test compounds on growth of these cells, the cells were plated at 2000 cells per well in a 96-well tissue culture plate, and were incubated overnight at 37° C. with 5% CO2. The next day, the test compounds were dissolved in 100% dimethyl sulfoxide (DMSO) to yield a 10 mM stock solution. Each compound was diluted with sterile medium to 1 mM in a sufficient quantity to yield a final concentration of 120 μM. The compounds were then serially diluted in medium with 1.2% DMSO. One-fourth final volume of the diluted compounds was transferred to 96 well plates. Test compounds were assayed in duplicate. DMSO was added to a row of “control cells” such that the final concentration of DMSO in each well was 0.3%. Wells to which no cells were added served as the “blank.” Wells to which no inhibitor was added served as “no inhibitor control”. The plates were returned to the incubator, and 5 days post addition of test compound, were analyzed as described below.
(§2) 3-(4,5-Dimethylthiazole-2-yl)-2,5-diphenyl-2H-tetrazolium bromide (thiazolyl blue; MTT) was added to each well to yield a final concentration of 1 mg/mL. The plates were then incubated at 37° C. for 3 hours. The plates were centrifuged at 1000 rpm for 5 minutes prior to aspiration of the MTT-containing medium. The MTT-containing medium was then removed and 100 μL 100% ethanol was added to each well to dissolve the resulting formazan metabolite. To ensure complete dissolution, plates were shaken for 15 minutes at room temperature. Absorbencies were read in a microtiter plate reader (Molecular Dynamics) at a wavelength of 570 nm with a 650 nm reference. Percent inhibition was calculated by subtracting the absorbance of the blank (no cell) wells from all wells, then subtracting the division of the average absorbance of each test duplicate by the average of the controls from 1.00. Inhibitory concentrations (IC50) were determined from the linear regression of a plot of the logarithm of the concentration versus the percent inhibition.
The colon adenocarcinoma line SW480 and the colon carcinoma line HCT-116 also were obtained from the ATCC and were tested according to the same protocol provided above for MDA-MB435 cell based assay with the following modifications. Cell line SW480 was plated at 1000 cells per well and analyzed at 6 days post addition of the test compound. Cell line HCT-116 was plated at 1000 cells per well and analyzed at 4 days post addition of test compound.

[3] = test system: estrogen receptor negative epithelial breast carcinoma line (MDA-MB-435); assay: MDA-MB-435 cell-based antiproliferative (MTT) assay; settings: Homo sapiens, MDA-MB-435, 120 h, 2000 cells per well, 5 days post addition of test compound, read-out: Antiproliferative Activity of MDA-MB435 (breast) Assay - IC50 Range
Protocol: as §1, §2

IC50 [1] [nM] | IC50 [2] [nM] | IC50 [3] [nM] | SMILES
1000 to 9990 | – | – | Cn1cccc1-c1[nH]nc2c1N=C(c1ccccc1Cl)c1cc([N+](=O)[O-])ccc1N2 [Compound D21]
1000 to 9990 | – | – | Cc1ccc(-c2[nH]nc3c2N=C(c2ccccc2Cl)c2cc([N+](=O)[O-])ccc2N3)s1 [Compound D26]
1000 to 9990 | – | – | CN(C)C(=O)c1[nH]nc2c1N=C(c1ccccc1Cl)c1cc([N+](=O)[O-])ccc1N2 [Compound C11, N,N-dimethyl-5-(2-chlorophenyl)-7-nitro-pyrazolo[3,4][1,4]benzodiazepine-3-carboxamide]
10 to 990 | 10 to 1000 | – | Cc1[nH]nc2c1N=C(c1ccccc1C(F)(F)F)c1cc([N+](=O)[O-])ccc1N2 [Compound D2]
10 to 990 | – | 1100 to 9990 | O=[N+]([O-])c1ccc2c(c1)C(c1ccccc1Cl)=Nc1c(n[nH]c1C(F)(F)F)N2 [Compound B12, 3-trifluoromethyl-5-(2-chlorophenyl)-7-nitro-pyrazolo[3,4][1,4]benzodiazepine]
1000 to 9990 | – | – | COC(=O)c1ccc2c(c1)C(c1ccccc1)=Nc1c[nH]nc1N2 [Compound A18, 5-phenyl-7-carbomethoxy-pyrazolo[3,4][1,4]benzodiazepine]
10 to 990 | – | 10000 to 30000 | O=[N+]([O-])c1ccc2c(c1)C(c1ccccc1Cl)=Nc1c(n[nH]c1-c1cc[nH]n1)N2 [Compound B15]
1000 to 9990 | – | – | Fc1ccccc1C1=Nc2c[nH]nc2Nc2ccc(I)cc21 [Compound A19, 5-(2-fluorophenyl)-7-iodo-pyrazolo[3,4][1,4]benzodiazepine]
10 to 990 | – | 1100 to 9990 | CC(C)c1[nH]nc2c1N=C(c1ccccc1Cl)c1cc(N)ccc1N2 [Compound C6, 3-(1-methylethyl)-5-(2-chlorophenyl)-7-amino-pyrazolo[3,4][1,4]benzodiazepine]
10 to 990 | – | – | O=[N+]([O-])c1ccc2c(c1)C(c1ccccc1Cl)=Nc1c(n[nH]c1-c1nccs1)N2 [Compound B13, 3-(1-thiazolyl)-5-(2-chlorophenyl)-7-nitro-pyrazolo[3,4][1,4]benzodiazepine]
10 to 990 | – | 1100 to 9990 | COCc1[nH]nc2c1N=C(c1ccccc1Cl)c1cc([N+](=O)[O-])ccc1N2 [Compound C16, 3-methoxymethyl-5-(2-chlorophenyl)-7-nitro-pyrazolo[3,4][1,4]benzodiazepine]
1000 to 9990 | – | – | Clc1ccc2c(c1)C(c1ccccc1)=Nc1c[nH]nc1N2 [Compound A6, 5-phenyl-7-chloro-pyrazolo[3,4][1,4]benzodiazepine]
10000 to 30000 | – | – | O=[N+]([O-])c1ccc2c(c1)C(c1ccccc1Cl)=Nc1c(n[nH]c1-c1ccccc1[N+](=O)[O-])N2 [Compound D39]
1000 to 9990 | – | – | CN(C)c1ccc(-c2[nH]nc3c2N=C(c2ccccc2Cl)c2cc([N+](=O)[O-])ccc2N3)cc1 [Compound D28]
1000 to 9990 | – | – | O=C(O)c1ccc2c(c1)C(c1ccccc1F)=Nc1c[nH]nc1N2 [Compound D22]
10 to 990 | 10 to 1000 | – | Cc1[nH]nc2c1N=C(c1ccccc1)c1cc([N+](=O)[O-])ccc1N2 [Compound B27, 3-methyl-5-phenyl-7-nitro-pyrazolo[3,4][1,4]benzodiazepine]
10 to 990 | – | – | CCOC(=O)c1ccc2c(c1)C(c1ccccc1F)=Nc1c[nH]nc1N2 [Compound A20, 5-(2-fluorophenyl)-7-carboethoxy-pyrazolo[3,4][1,4]benzodiazepine]

IC50 [1] [nM] | IC50 [2] [nM] | IC50 [3] [nM] | SMILES
1000 to 9990 | – | – | Fc1ccccc1C1=Nc2c[nH]nc2Nc2ccc(Cl)cc21 [Compound A7, 5-(2-fluorophenyl)-7-chloro-pyrazolo[3,4][1,4]benzodiazepine]
1000 to 9990 | – | – | O=[N+]([O-])c1ccc2c(c1)C(c1ccccc1)=Nc1c(n[nH]c1-c1ncc[nH]1)N2 [Compound D34]
10000 to 30000 | – | – | Clc1ccc2c(c1)C(c1ccccc1Cl)=Nc1c[nH]nc1N2 [Compound A4, 5-(2-chlorophenyl)-7-chloro-pyrazolo[3,4][1,4]benzodiazepine]
10 to 990 | 10 to 1000 | – | Cc1[nH]nc2c1N=C(c1ccccc1F)c1cc(C(N)=O)ccc1N2 [Compound C19, 3-methyl-5-(2-fluorophenyl)-pyrazolo[3,4][1,4]benzodiazepine-7-carboxamide]
1000 to 9990 | – | 10000 to 30000 | CCOC(=O)c1[nH]nc2c1N=C(c1ccccc1Cl)c1cc([N+](=O)[O-])ccc1N2 [Compound B2, 3-carboethoxy-5-(2-chlorophenyl)-7-nitro-pyrazolo[3,4][1,4]benzodiazepine]
10 to 990 | – | 10000 to 30000 | N#Cc1[nH]nc2c1N=C(c1ccccc1Cl)c1cc([N+](=O)[O-])ccc1N2 [Compound C18, 5-(2-chlorophenyl)-7-nitro-pyrazolo[3,4][1,4]benzodiazepine-3-carbonitrile]
10 to 990 | 1100 to 9990 | – | Cc1[nH]nc2c1N=C(c1ccccc1F)c1cc(Cl)ccc1N2 [Compound B32, 3-methyl-5-(2-fluorophenyl)-7-chloro-pyrazolo[3,4][1,4]benzodiazepine]
10 to 990 | – | 10000 to 30000 | NC(=O)c1[nH]nc2c1N=C(c1ccccc1Cl)c1cc([N+](=O)[O-])ccc1N2 [Compound C10, 5-(2-chlorophenyl)-7-nitro-pyrazolo[3,4][1,4]benzodiazepine-3-carboxamide]
1000 to 9990 | – | – | O=C(c1ccc2c(c1)C(c1ccccc1F)=Nc1c[nH]nc1N2)N(CCO)CCO [Compound C3, N,N-bis-(2-hydroxyethyl)-5-(2-fluorophenyl)-pyrazolo[3,4][1,4]benzodiazepine-7-carboxamide]
1000 to 9990 | 10000 to 30000 | – | Cc1[nH]nc2c1N=C(c1ccccc1)c1cc(I)ccc1N2 [Compound B33, 3-methyl-5-phenyl-7-iodo-pyrazolo[3,4][1,4]benzodiazepine]
10 to 990 | – | – | CCC(C)c1[nH]nc2c1N=C(c1ccccc1Cl)c1cc([N+](=O)[O-])ccc1N2 (stereo not drawn) [Compound B17, 3-(1-methylpropyl)-5-(2-chlorophenyl)-7-nitro-pyrazolo[3,4][1,4]benzodiazepine]
1000 to 9990 | 10000 to 30000 | – | Fc1ccc2c(c1)C(c1ccccc1F)=Nc1c[nH]nc1N2 [Compound A11, 5-(2-fluorophenyl)-7-fluoro-pyrazolo[3,4][1,4]benzodiazepine]
1000 to 9990 | – | – | CC(C)Cc1[nH]nc2c1N=C(c1ccccc1Cl)c1cc([N+](=O)[O-])ccc1N2 [Compound B11, 3-(2-methylpropyl)-5-(2-chlorophenyl)-7-nitro-pyrazolo[3,4][1,4]benzodiazepine]
10 to 990 | 10 to 1000 | – | Cc1[nH]nc2c1N=C(c1ccccc1F)c1cc(F)ccc1N2 [Compound B26, 3-methyl-5-(2-fluorophenyl)-7-fluoro-pyrazolo[3,4][1,4]benzodiazepine]
10 to 990 | – | – | O=[N+]([O-])c1ccc2c(c1)C(c1ccccc1C(F)(F)F)=Nc1c[nH]nc1N2 [Compound A17, 5-(2-trifluoromethylphenyl)-7-nitro-pyrazolo[3,4][1,4]benzodiazepine]
1000 to 9990 | – | – | Cc1ccc(-c2[nH]nc3c2N=C(c2ccccc2Cl)c2cc([N+](=O)[O-])ccc2N3)cc1 [Compound D24]
10 to 990 | – | – | Cc1[nH]nc2c1N=C(c1ccccc1)c1ccccc1N2 [Compound B28, 3-methyl-5-phenyl-pyrazolo[3,4][1,4]benzodiazepine]
